From US20070254312A1, “Protein Kinase Inhibitors and Methods for Identiying Same” (priority 2004, published 2007)
Where two headings read alike, the source gives them in different places. Starred links: 1 amine or outer side, 2 acyl side, 3 side chain; linkers in the order of their positions; H or OH if unused. Non-standard residues stand in square brackets, D forms with d. Residues, ends and D or L forms follow the SMILES beside them. Groups on a side chain read outwards from the residue. *: point of attachment. X2 = N=C(N)NCCC[C@@H](C(=O)*)N(Cc1cccc(O)c1O)Cc1cccc(O)c1O; X1 = N=C(N)NCCC[C@@H](C(=O)[*:2])N(Cc1cccc(O)c1O)[*:1]; Benzoyl(4-NO2) = O=C(c1ccc([N+](=O)[O-])cc1)*; Cysteamide = C(CS[*:3])N[*:1]; Dap = NC[C@H](N)C(=O)O

Tests used:
[1] = molecular target: T1, PKCδ (Homo sapiens, UniProt Q05655); assay: PKC δ screen, IC50 and Ki determination (Example 2); type: biochemical; design: purchased Panvera; settings: for Fold selectivity (IC50), PKC δ: relative to most potently inhibited isoform (=1): δ for F, ζ for G
Description: (§1) Protein Kinase C Assays. The peptides […] (for PKC α, β and γ) and […] (for PKC δ, ε, θ, η, τ, and ζ) were used as substrates. […] Total reaction volume in each well was 50 μL. […] Following an additional 5 min incubation at ambient temperature, 75 μL from each reaction well was transferred into each well of a Unifilter (P81 cellulose phosphate paper) assay plate and washed four times with 0.1% phosphoric acid in water. […] Lead compounds from the library were combined into a single 96 well plate and re-assayed as described above in order to identify the best inhibitor. IC50 determinations of resynthesized inhibitor leads for individual PKC isoforms. Assays were performed in triplicate at pH 7.5 and thermostatically maintained at 30° C. using a Boekel constant temperature device. […] The IC50 values for pure compounds as inhibitors were calculated based on the experimental data using GraFit (Erithacus Software Limited). Protein kinase C δ, ε, θ, and η: As described for PKC α, β, and γ except that the assay was performed in the absence of CaCl2. Protein kinase C τ and ζ: As described for PKC α, β, and γ except that the assay was performed in the absence of CaCl2 and DAG. […] Total reaction volume in each well was 50 μL. All the wells were tested in the same plate and each concentration was tested in triplicate. […] Double reciprocal plots were obtained at different concentrations of substrates. Ki values were calculated using Enzyme Kinetics, SigmaPlot (SPSS Inc.).

[2] = molecular target: T2, PKC βI (Homo sapiens, UniProt P05771); assay: IC50 determination for individual PKC isoforms (Example 2); type: biochemical; settings: for Fold selectivity (IC50), PKC β1: relative to most potently inhibited isoform (=1): δ for F, ζ for G
T2 construct: purchased Panvera
Description: (§2) Protein Kinase C Assays. The peptides […] (for PKC α, β and γ) and […] (for PKC δ, ε, θ, η, τ, and ζ) were used as substrates. IC50 determinations of resynthesized inhibitor leads for individual PKC isoforms. Assays were performed in triplicate at pH 7.5 and thermostatically maintained at 30° C. using a Boekel constant temperature device. […] The IC50 values for pure compounds as inhibitors were calculated based on the experimental data using GraFit (Erithacus Software Limited). Protein kinase C δ, ε, θ, and η: As described for PKC α, β, and γ except that the assay was performed in the absence of CaCl2. Protein kinase C τ and ζ: As described for PKC α, β, and γ except that the assay was performed in the absence of CaCl2 and DAG.

[3] = molecular target: T3, PKC ι (Homo sapiens, UniProt P41743); assay: as above; type: biochemical; settings: for Fold selectivity (IC50), PKC ι: relative to most potently inhibited isoform (=1): δ for F, ζ for G, text prints τ
T3 construct: purchased Panvera
T3 sequence (P41743 1-596): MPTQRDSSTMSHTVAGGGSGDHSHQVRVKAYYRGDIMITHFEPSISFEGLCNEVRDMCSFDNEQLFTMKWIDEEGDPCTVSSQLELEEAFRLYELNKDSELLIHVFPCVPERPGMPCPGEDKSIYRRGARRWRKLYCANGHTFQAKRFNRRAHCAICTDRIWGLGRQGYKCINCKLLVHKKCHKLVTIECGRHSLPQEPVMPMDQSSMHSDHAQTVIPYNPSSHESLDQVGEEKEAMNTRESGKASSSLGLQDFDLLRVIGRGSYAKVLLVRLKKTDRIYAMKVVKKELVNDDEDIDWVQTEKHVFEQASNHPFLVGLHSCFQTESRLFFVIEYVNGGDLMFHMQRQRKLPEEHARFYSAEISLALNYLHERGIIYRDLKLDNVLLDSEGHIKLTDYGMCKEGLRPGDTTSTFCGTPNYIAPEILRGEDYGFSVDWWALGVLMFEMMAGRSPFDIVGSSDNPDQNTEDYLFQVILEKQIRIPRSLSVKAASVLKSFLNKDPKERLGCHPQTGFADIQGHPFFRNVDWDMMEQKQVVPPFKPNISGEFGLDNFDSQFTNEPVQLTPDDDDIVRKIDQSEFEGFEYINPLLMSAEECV
Description: as §2

[4] = molecular target: T4, PKCα (Homo sapiens, UniProt P17252); assay: as above; type: biochemical; settings: for Fold selectivity (IC50), PKC α: relative to most potently inhibited isoform (=1): δ for F, ζ for G
Description: as §2

[5] = molecular target: PKCγ (Homo sapiens, UniProt P05129); assay: as above; type: biochemical; design: purchased Panvera; settings: for Fold selectivity (IC50), PKC γ: relative to most potently inhibited isoform (=1): δ for F, ζ for G
Description: as §2

[6] = molecular target: T5, PKCε (Homo sapiens, UniProt Q02156); assay: as above; type: biochemical; design: purchased Panvera; settings: for Fold selectivity (IC50), PKC ε: relative to most potently inhibited isoform (=1): δ for F, ζ for G
T5 sequence (Q02156 1-737): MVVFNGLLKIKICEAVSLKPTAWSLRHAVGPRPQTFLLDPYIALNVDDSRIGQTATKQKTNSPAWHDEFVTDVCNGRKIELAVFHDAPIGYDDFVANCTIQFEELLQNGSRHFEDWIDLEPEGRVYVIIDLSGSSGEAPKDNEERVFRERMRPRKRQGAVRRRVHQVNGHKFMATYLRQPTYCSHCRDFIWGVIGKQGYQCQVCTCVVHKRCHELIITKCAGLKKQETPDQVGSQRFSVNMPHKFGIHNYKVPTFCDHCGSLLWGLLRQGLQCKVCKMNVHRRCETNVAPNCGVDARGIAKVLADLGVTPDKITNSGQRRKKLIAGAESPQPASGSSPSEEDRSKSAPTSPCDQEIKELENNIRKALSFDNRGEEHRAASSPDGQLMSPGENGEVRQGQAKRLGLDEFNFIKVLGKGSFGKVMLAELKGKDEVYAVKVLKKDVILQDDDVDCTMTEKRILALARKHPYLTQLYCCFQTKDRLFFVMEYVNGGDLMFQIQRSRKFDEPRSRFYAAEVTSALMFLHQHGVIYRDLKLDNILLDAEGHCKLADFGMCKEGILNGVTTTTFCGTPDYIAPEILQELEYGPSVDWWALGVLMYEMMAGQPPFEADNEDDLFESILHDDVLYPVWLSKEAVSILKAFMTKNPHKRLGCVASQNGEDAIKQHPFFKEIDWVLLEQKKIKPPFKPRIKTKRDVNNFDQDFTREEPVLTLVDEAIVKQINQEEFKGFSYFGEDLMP
Description: as §2

[7] = molecular target: PKCη (Homo sapiens, UniProt P24723); assay: as above; type: biochemical; design: purchased Panvera; settings: for Fold selectivity (IC50), PKC η: relative to most potently inhibited isoform (=1): δ for F, ζ for G
Description: as §2

[8] = molecular target: PKCθ (Homo sapiens, UniProt Q04759); assay: as above; type: biochemical; design: purchased Panvera; settings: for Fold selectivity (IC50), PKC θ: relative to most potently inhibited isoform (=1): δ for F, ζ for G
Description: as §2

[9] = molecular target: T6, PKCζ (Homo sapiens, UniProt Q05513); assay: PKC ζ screen, IC50 and Ki determination (Example 2); type: biochemical; design: purchased Panvera; settings: for Fold selectivity (IC50), PKC ζ: relative to most potently inhibited isoform (=1): δ for F, ζ for G
T6 sequence (Q05513 1-592): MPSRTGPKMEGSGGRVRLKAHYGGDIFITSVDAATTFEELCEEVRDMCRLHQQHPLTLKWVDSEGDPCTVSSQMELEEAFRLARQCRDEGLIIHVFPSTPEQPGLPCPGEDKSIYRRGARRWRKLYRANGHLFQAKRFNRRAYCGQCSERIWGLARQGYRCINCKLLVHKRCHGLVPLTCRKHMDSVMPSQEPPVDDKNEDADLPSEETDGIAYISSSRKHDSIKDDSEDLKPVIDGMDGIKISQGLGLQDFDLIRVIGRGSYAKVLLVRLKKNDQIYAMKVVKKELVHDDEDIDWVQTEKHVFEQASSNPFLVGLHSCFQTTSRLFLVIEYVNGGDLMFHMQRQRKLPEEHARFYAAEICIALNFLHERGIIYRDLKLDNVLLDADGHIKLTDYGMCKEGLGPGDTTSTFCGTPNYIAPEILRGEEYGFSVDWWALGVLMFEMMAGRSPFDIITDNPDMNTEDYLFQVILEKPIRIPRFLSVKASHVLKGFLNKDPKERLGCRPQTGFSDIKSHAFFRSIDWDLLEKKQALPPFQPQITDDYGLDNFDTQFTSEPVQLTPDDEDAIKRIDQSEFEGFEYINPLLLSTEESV
Description: as §1

[10] = molecular target: T4, PKCα; settings: cited from earlier work
[11] = molecular target: PKC β1 (Homo sapiens, UniProt P05771); settings: literature values; relative to most potently inhibited isoform (=1); cited from earlier work
[12] = molecular target: T1, PKCδ; design: purchased Panvera; settings: literature values; relative to most potently inhibited isoform (=1); cited from earlier work
[13] = molecular target: T5, PKCε; design: purchased Panvera; settings: literature values; relative to most potently inhibited isoform (=1); cited from earlier work
[14] = molecular target: T6, PKCζ; design: purchased Panvera; settings: literature values; relative to most potently inhibited isoform (=1); cited from earlier work

Chain of PKCη (P24723 whole entry, canonical isoform): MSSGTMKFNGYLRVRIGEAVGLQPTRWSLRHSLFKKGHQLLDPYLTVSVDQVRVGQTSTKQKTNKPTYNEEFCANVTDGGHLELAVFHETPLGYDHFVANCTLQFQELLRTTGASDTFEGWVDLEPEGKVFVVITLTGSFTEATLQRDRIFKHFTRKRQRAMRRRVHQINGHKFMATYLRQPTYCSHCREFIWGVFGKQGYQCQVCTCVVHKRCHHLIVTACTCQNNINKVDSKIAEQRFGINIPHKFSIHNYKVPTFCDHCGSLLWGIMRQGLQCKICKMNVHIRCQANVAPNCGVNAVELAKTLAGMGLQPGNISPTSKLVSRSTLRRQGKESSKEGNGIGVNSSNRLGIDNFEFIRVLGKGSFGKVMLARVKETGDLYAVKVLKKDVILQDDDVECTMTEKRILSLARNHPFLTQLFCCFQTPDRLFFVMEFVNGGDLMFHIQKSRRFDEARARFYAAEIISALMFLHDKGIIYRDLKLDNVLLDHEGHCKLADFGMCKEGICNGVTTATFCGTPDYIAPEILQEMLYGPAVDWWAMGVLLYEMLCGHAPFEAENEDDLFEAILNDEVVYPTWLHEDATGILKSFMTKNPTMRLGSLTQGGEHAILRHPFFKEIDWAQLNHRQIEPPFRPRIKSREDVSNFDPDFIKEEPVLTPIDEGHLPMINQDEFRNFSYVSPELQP
T2 sequence (P05771 whole entry, canonical isoform): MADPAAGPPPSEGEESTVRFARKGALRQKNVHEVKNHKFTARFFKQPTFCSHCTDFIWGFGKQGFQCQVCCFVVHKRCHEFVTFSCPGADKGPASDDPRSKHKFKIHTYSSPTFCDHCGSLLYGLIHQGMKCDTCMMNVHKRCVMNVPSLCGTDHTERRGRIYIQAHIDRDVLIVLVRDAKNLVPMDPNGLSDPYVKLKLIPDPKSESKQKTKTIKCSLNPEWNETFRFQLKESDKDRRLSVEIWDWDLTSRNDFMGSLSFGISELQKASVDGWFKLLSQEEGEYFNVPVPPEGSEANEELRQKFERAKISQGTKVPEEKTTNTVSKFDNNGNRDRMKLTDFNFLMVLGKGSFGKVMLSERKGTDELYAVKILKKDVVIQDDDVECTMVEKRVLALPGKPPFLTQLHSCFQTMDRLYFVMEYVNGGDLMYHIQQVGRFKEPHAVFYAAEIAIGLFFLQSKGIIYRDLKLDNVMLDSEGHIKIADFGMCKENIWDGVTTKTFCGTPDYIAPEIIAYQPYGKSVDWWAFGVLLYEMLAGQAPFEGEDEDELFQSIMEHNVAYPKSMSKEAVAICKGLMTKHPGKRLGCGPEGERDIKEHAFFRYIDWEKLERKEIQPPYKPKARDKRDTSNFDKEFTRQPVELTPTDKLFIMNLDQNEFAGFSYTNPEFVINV
T1 sequence (Q05655 whole entry, canonical isoform): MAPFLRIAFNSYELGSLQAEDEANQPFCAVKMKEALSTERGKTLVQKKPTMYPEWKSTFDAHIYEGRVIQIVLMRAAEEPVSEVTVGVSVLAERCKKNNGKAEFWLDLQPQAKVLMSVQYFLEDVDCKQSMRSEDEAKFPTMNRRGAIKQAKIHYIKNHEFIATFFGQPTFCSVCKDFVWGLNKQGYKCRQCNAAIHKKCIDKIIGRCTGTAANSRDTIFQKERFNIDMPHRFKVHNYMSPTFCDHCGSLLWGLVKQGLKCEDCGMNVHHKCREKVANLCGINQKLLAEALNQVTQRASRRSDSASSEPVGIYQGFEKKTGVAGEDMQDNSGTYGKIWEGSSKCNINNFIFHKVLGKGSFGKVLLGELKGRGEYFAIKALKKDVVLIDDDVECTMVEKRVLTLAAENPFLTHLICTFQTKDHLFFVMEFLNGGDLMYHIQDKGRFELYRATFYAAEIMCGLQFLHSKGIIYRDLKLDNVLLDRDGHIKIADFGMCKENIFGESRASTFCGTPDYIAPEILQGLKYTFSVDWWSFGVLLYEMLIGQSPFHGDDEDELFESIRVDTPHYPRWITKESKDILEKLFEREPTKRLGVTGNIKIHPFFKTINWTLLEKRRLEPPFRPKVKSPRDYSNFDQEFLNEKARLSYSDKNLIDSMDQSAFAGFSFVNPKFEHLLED
Chain of PKCθ (Q04759 whole entry, canonical isoform): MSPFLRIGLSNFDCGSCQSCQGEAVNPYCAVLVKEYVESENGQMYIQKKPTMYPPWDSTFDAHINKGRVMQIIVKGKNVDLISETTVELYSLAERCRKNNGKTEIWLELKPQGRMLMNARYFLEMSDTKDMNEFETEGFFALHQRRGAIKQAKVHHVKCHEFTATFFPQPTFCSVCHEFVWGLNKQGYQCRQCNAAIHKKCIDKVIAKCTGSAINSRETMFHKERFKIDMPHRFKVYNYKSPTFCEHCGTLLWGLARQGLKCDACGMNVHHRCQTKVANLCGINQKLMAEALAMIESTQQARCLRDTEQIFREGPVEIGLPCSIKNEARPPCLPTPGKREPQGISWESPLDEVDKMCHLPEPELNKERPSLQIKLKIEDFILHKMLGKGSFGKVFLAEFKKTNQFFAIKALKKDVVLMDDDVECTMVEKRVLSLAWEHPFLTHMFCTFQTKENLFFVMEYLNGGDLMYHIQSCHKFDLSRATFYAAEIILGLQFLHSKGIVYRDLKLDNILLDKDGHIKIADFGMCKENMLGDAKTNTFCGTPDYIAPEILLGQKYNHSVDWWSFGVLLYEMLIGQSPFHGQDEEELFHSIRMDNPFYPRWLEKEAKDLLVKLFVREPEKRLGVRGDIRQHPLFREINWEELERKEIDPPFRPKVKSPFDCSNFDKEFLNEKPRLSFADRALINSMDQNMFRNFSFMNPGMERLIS
Chain of PKC β1 (P05771 whole entry, canonical isoform): as the sequence (P05771 whole entry, canonical isoform) above

SMILES	IC50 [1] [nM]	Fold selectivity (IC50), PKC β1 [2] [fold]	Fold selectivity (IC50), PKC ι [3] [fold]	Fold selectivity (IC50), PKC α [4] [fold]	Fold selectivity (IC50), PKC γ [5] [fold]	Fold selectivity (IC50), PKC ε [6] [fold]	Fold selectivity (IC50), PKC η [7] [fold]	Fold selectivity (IC50), PKC θ [8] [fold]	Fold selectivity (IC50), PKC δ [1] [fold]	Fold selectivity (IC50), PKC ζ [9] [fold]	also measured
CSCC[C@H](NC(=O)[C@H](Cc1ccccc1)NC(=O)[C@H](CNC(C)=O)NC(=O)CNC(=O)[C@H](CCC(N)=O)NC(=O)[C@H](CCCNC(=N)N)NC(=O)[C@H](CCCNC(=N)N)NC(C)=O)C(=O)N[C@@H](Cc1ccc(O)cc1)C(=O)N[C@@H](Cc1ccccc1)C(=O)NCCS [Compound A] (Ac-RRQG[Dap](Ac)FMYF-Cysteamide)	50000										
CSCC[C@H](NC(=O)[C@H](Cc1ccccc1)NC(=O)[C@H](CNC(=O)CNC(=O)c1ccc([N+](=O)[O-])cc1)NC(=O)CNC(=O)[C@H](CCC(N)=O)NC(=O)[C@H](CCCNC(=N)N)NC(=O)[C@H](CCCNC(=N)N)N(Cc1cccc(O)c1O)Cc1cccc(O)c1O)C(=O)N[C@@H](Cc1ccc(O)cc1)C(=O)N[C@@H](Cc1ccccc1)C(=O)NCCS [Compound G] (X2-RQG[Dap]([Gly-Benzoyl(4-NO2)])FMYF-Cysteamide)	5200 ± 100	730	1493	6333	5093	4600	2040	2227	693	1	
CN(C)CCCn1cc(C2=C(c3c[nH]c4ccccc34)C(=O)NC2=O)c2ccccc21 [Gö6850]											IC50 ([10]; literature value, read-out: IC50 of the most potently inhibited isoform, PKC α (in parentheses)): 8.4 nM; Fold selectivity (IC50), PKC α ([10]; literature values, relative to most potently inhibited isoform (=1)): 1 fold; Fold selectivity (IC50), PKC β1 [11]: 2 fold; Fold selectivity (IC50), PKC δ [12]: 25 fold; Fold selectivity (IC50), PKC ε [13]: 16 fold; Fold selectivity (IC50), PKC ζ [14]: 690 fold

Continued by falling IC50 [1], values first:

IC50 [1] [nM]	Fold selectivity (IC50), PKC β1 [2] [fold]	Fold selectivity (IC50), PKC ι [3] [fold]	Fold selectivity (IC50), PKC α [4] [fold]	Fold selectivity (IC50), PKC γ [5] [fold]	Fold selectivity (IC50), PKC ε [6] [fold]	Fold selectivity (IC50), PKC η [7] [fold]	Fold selectivity (IC50), PKC θ [8] [fold]	Fold selectivity (IC50), PKC δ [1] [fold]	Fold selectivity (IC50), PKC ζ [9] [fold]	SMILES	also measured
25 ± 2										CSCC[C@H](NC(=O)[C@H](Cc1ccccc1)NC(=O)[C@H](CNC(=O)CNC(=O)c1ccc([N+](=O)[O-])cc1)NC(=O)CNC(=O)[C@H](CCC(N)=O)NC(=O)[C@H](CCCNC(=N)N)NC(=O)[C@@H](N)CCCNC(=N)N)C(=O)N[C@@H](Cc1ccc(O)cc1)C(=O)N[C@@H](Cc1ccccc1)C(=O)NCCS [Compound E] (H-RRQG[Dap]([Gly-Benzoyl(4-NO2)])FMYF-Cysteamide)	IC50 [2]: 8 ± 0.5 nM; Selectivity (Compound E), PKC βI ([2]; IC50 relative to βI (=1)): 1; Selectivity (Compound E), PKC ι ([3]; IC50 relative to βI (=1)): 94; IC50 [4]: 3.1 ± 0.2 µM; Selectivity (Compound E), PKC α ([4]; IC50 relative to βI (=1)): 387; Selectivity (Compound E), PKC γ ([5]; IC50 relative to βI (=1)): 550; Selectivity (Compound E), PKC ε ([6]; IC50 relative to βI (=1)): 287; Selectivity (Compound E), PKC η ([7]; IC50 relative to βI (=1)): 1650; Selectivity (Compound E), PKC θ ([8]; IC50 relative to βI (=1)): 1775; Selectivity (Compound E), PKC δ ([1]; IC50 relative to βI (=1)): 3.1; IC50 [9]: 22 ± 3 nM; Selectivity (Compound E), PKC ζ ([9]; IC50 relative to βI (=1)): 2.8
18 ± 2	172	26	944	500	489	683	761	1	200	CSCC[C@H](NC(=O)[C@H](Cc1ccccc1)NC(=O)[C@H](CNC(=O)CNC(=O)c1ccc([N+](=O)[O-])cc1)NC(=O)CNC(=O)[C@H](CCC(N)=O)NC(=O)[C@H](CCCNC(=N)N)NC(=O)[C@H](CCCNC(=N)N)NCc1cccc(O)c1O)C(=O)N[C@@H](Cc1ccc(O)cc1)C(=O)N[C@@H](Cc1ccccc1)C(=O)NCCS [Compound F] (H-[X1]RQG[Dap]([Gly-Benzoyl(4-NO2)])FMYF-Cysteamide)	Ki ([1]; versus peptide substrate): 8 ± 1 nM
